Experimental data published in patent publication US20160339079A1, “TRANSMUCOSAL AND TRANSEPITHELIAL DRUG DELIVERY SYSTEM” (UNIVERSITY OF BIRMINGHAM, priority 2014, published 2016).

Tests used:
[1] = system: Retinal Ganglion Cells; format: cell-based, rats
Procedure: The cells were studied against several cell lines for any cytotoxic effects they might induce. Dissociated retinal cultures were prepared from rats and plated onto culture plates. The cells were treated with nanosome peptide and then incubated for 72 hours and fixed with formaldehyde. The cells were stained with β3 tubulin and imaged on the fluorescence microscope. The positive cells were counted and comparisons were taken.

[2] = system: primary rat meningeal fibroblast cells; format: cell-based, Sprague-Dawley Rats
Procedure: The nanosome toxicity was also tested against primary rat meningeal fibroblast cells. The cells were isolated from Sprague-Dawley Rats. The leptomeninges was removed from the rat and the meningeal fibroblast cells were isolated from the tissue. The cells were then plated out and treated with nanosome. The cell media was supplemented with resazurin for 2 hours and then harvested and the media fluorescence read at 570 nm. The cell samples were then frozen in deionised water for DNA analysis (FIG. 7). […] This supports the work carried out in the retinal cultures that the nanosomes are not toxic.

[3] = system: gram positive and gram negative bacteria; test: Broad spectrum antibacterial activity; format: cell-based; conditions: both gram positive and gram negative bacteria
Procedure: It is effective at killing both gram positive and gram negative bacteria and was particularly selective against pseudomonas aeruginosa with a MIC of 0.03 mg/mL.

With `N=C(N)NCCC[C@H](NC(=O)[C@H](CCCNC(=N)N)NC(=O)[C@H](CCCNC(=N)N)NC(=O)[C@H](CCCNC(=N)N)NC(=O)[C@H](CCCNC(=N)N)NC(=O)[C@H](CCCNC(=N)N)NC(=O)CCCCCNC(=S)Nc1ccc2c(c1)C(=O)OC21c2ccc(O)cc2Oc2cc(O)ccc21)C(=O)O` [nanosome, RRRRRR-Linker-FITC] the “β3 tubulin positive cells, treated wells versus control” value [1] was “no significant difference”, the “effect on the number of cells in the sample (DNA assay)” value [2] was “did not have a significant effect” and the killing of bacteria [3] was “highly effective broad spectrum antibacterial agent”.
